According to US20210220376A1, “ADDICTION TREATMENT OF AN ALCOHOL-CONSUMING PATIENT POPULATION” (Amygdala Neurosciences, Inc., priority 2018, published 2021):

Test system: healthy male alcohol drinkers
Test: Phase 1 single-ascending-dose study of compound (2) coadministered with ethanol: safety
Type: in vivo, human
Procedure: This was a single-center, randomized, double-blind, placebo-controlled, single-ascending-dose cohort study to evaluate the safety and tolerability of the coadministration of up to 6 dose levels of compound (2) (25 mg, 50 mg, 100 mg, 200 mg, 400 mg and 600 mg) and EtOH in healthy male alcohol drinkers.
Within 27 days of the medical screening visit, subjects were enrolled and attended an inpatient Qualification Phase in which they received up to 5 standard drinks (14 grams of EtOH each; oral solution of vodka containing 40% [v/v] EtOH, mixed with a non-carbonated beverage, one drink every 30 minutes) to evaluate their tolerance to repeat administration to ensure they could safely tolerate the planned EtOH treatment. A minimum washout interval of 44 hours was performed between initiation of the last EtOH administration in the Qualification Phase and study drug administration in the Treatment Phase.
Following qualification, eligible subjects were enrolled and randomized to receive compound (2) or placebo in a 3:1 fashion in each of 6 cohorts (8 subjects per cohort). As a safety precaution, no more than 4 subjects were administered study drug on any given day. Planned compound (2) dose levels included doses of 25 mg, 50 mg, 100 mg, 200 mg, 400 mg, and 600 mg. Study drug administration occurred approximately 1 hour following ingestion of a standardized (moderate-fat) meal. Approximately 2 hours after receiving the study drug, subjects began a session of repeat EtOH administration, during which they could receive up to 5 doses of EtOH (14 grams each, approximately 1 standard drink) every 30 minutes, or until a stopping criterion applied. Safety assessments, pharmacodynamic assessments and pharmacokinetic blood sample collections were obtained up to 48 hours post-dose. Subjects were discharged after 48-hour post-dose procedures were completed and the investigator deemed it safe to do so. Subjects returned for the safety follow-up visit approximately 7 (±2) days following discharge from the Treatment Phase or after early discontinuation from the study.
The primary endpoints included frequency and severity of adverse events (AEs), ethanol reaction (ER) scores and flushing, laboratory values, vital signs, and electrocardiograms (ECGs).
Subjects' ER scores and flushing were summarized descriptively by timepoint, category and treatment. In addition, flushing, ER heat sensation and ER palpitation were compared between each of the active doses and placebo using a mixed-effect model for repeated measures (MMRM) analysis with treatment, visit, and treatment by visit as fixed effects and baseline as a covariate. The actual value was used as the dependent variable and visit included pre-EtOH, 30 minutes, 60 minutes, 90 minutes, 120 minutes, 150 minutes and 3 hours relative to the first EtOH administration in Treatment Phase. The variance-covariance matrix was assumed to be unstructured. […] Results were presented as least square means (LSMEANS), treatment differences in LSMEANS, 95% confidence intervals (CI) and p-values.
Vital signs measurements (respiratory rate, systolic and diastolic blood pressure, and heart rate) were summarized by treatment and visit. Heart rate and diastolic blood pressure were also compared between each of the active doses and placebo using an MMRM analysis with treatment, visit, and treatment by visit as fixed effects and baseline as a covariate.
Twelve-lead ECG results were summarized by timepoint and treatment, and frequencies (numbers and percentages) were calculated for the overall evaluation. Concomitant medications, clinical laboratory evaluations (raw data and change from baseline, as applicable) and physical examination findings were listed.

[1] = 25 mg, 105 min after first EtOH
[2] = 25 mg, 135 min after first EtOH
[3] = 50 mg, 105 min after first EtOH
[4] = 50 mg, 135 min after first EtOH
[5] = 100 mg, 15 min after first EtOH
[6] = 100 mg, 45 min after first EtOH
[7] = 100 mg, 75 min after first EtOH
[8] = 100 mg, 105 min after first EtOH
[9] = 100 mg, 135 min after first EtOH
[10] = 200 mg, 15 min after first EtOH
[11] = 200 mg, 45 min after first EtOH
[12] = 200 mg, 75 min after first EtOH
[13] = 200 mg, 105 min after first EtOH

O=C(NCc1ccc(-c2ccn(COP(=O)(O)O)c(=O)c2)cc1)c1c(Cl)cccc1Cl [Compound (2), phosphoric acid mono-(4-{4-[(2,6-dichloro-benzoylamino)-methyl]-phenyl}-2-oxo-2H-pyridin-1-ylmethyl) ester]
flushing (25 mg): not observed
subjects reporting a TEAE (25 mg): 66.7%
Diastolic Blood Pressure, Mean (25 mg, 15 min after first EtOH): 76.0 mmHg
Systolic Blood Pressure, Mean (25 mg, 15 min after first EtOH): 120.3 mmHg
Diastolic Blood Pressure, Mean (25 mg, 45 min after first EtOH): 75.5 mmHg
Heart Rate, Mean (25 mg, 45 min after first EtOH): 65.3 beats/min
Systolic Blood Pressure, Mean (25 mg, 45 min after first EtOH): 120.5 mmHg
QTcF Interval, Aggregate, Mean (25 mg, 1 hour after initiation of repeat EtOH administration session): 406.7 ms
Diastolic Blood Pressure, Mean (25 mg, 75 min after first EtOH): 75.8 mmHg
Heart Rate, Mean (25 mg, 75 min after first EtOH): 63.5 beats/min
Systolic Blood Pressure, Mean (25 mg, 75 min after first EtOH): 120.7 mmHg
Diastolic Blood Pressure, Mean [1]: 74.0 mmHg
Heart Rate, Mean [1]: 66.5 beats/min
Systolic Blood Pressure, Mean [1]: 118.2 mmHg
Diastolic Blood Pressure, Mean [2]: 75.0 mmHg
Heart Rate, Mean [2]: 64.7 beats/min
Systolic Blood Pressure, Mean [2]: 119.0 mmHg
Diastolic Blood Pressure, Mean (25 mg, Pre-EtOH): 73.5 mmHg
Heart Rate, Mean (25 mg, Pre-EtOH): 59.5 beats/min
Systolic Blood Pressure, Mean (25 mg, Pre-EtOH): 117.2 mmHg
QTcF Interval, Aggregate, Mean (25 mg, prior to initiation of repeat EtOH administration session): 403.7 ms
subjects reporting a TEAE (50 mg): 83.3%
Diastolic Blood Pressure, Mean (50 mg, 15 min after first EtOH): 73.3 mmHg
Systolic Blood Pressure, Mean (50 mg, 15 min after first EtOH): 116.7 mmHg
Diastolic Blood Pressure, Mean (50 mg, 45 min after first EtOH): 75.2 mmHg
Heart Rate, Mean (50 mg, 45 min after first EtOH): 72.7 beats/min
Systolic Blood Pressure, Mean (50 mg, 45 min after first EtOH): 119.5 mmHg
QTcF Interval, Aggregate, Mean (50 mg, 1 hour after initiation of repeat EtOH administration session): 402.5 ms
Diastolic Blood Pressure, Mean (50 mg, 75 min after first EtOH): 73.8 mmHg
Heart Rate, Mean (50 mg, 75 min after first EtOH): 80.5 beats/min
Systolic Blood Pressure, Mean (50 mg, 75 min after first EtOH): 117.5 mmHg
Diastolic Blood Pressure, Mean [3]: 71.8 mmHg
Heart Rate, Mean [3]: 81.8 beats/min
Systolic Blood Pressure, Mean [3]: 117.5 mmHg
Diastolic Blood Pressure, Mean [4]: 78.7 mmHg
Heart Rate, Mean [4]: 76.8 beats/min
Systolic Blood Pressure, Mean [4]: 123.7 mmHg
Diastolic Blood Pressure, Mean (50 mg, Pre-EtOH): 74.5 mmHg
Heart Rate, Mean (50 mg, Pre-EtOH): 56.7 beats/min
Systolic Blood Pressure, Mean (50 mg, Pre-EtOH): 115.7 mmHg
subjects with TEAE of tachyarrhythmia (50 mg, after EtOH): one
QTcF Interval, Aggregate, Mean (50 mg, prior to initiation of repeat EtOH administration session): 400.7 ms
subjects reporting a TEAE (100 mg): 100%
Diastolic Blood Pressure, Mean [5]: 72.0 mmHg
Systolic Blood Pressure, Mean [5]: 119.2 mmHg
Diastolic Blood Pressure, Mean [6]: 70.2 mmHg
Heart Rate, Mean [6]: 70.5 beats/min
Systolic Blood Pressure, Mean [6]: 120.0 mmHg
QTcF Interval, Aggregate, Mean (100 mg, 1 hour after initiation of repeat EtOH administration session): 405.3 ms
Diastolic Blood Pressure, Mean [7]: 70.7 mmHg
Heart Rate, Mean [7]: 81.8 beats/min
Systolic Blood Pressure, Mean [7]: 120.2 mmHg
Diastolic Blood Pressure, Mean [8]: 69.5 mmHg
Heart Rate, Mean [8]: 83.8 beats/min
Systolic Blood Pressure, Mean [8]: 125.3 mmHg
Diastolic Blood Pressure, Mean [9]: 68.2 mmHg
Heart Rate, Mean [9]: 81.3 beats/min
Systolic Blood Pressure, Mean [9]: 114.8 mmHg
Diastolic Blood Pressure, Mean (100 mg, Pre-EtOH): 71.5 mmHg
Heart Rate, Mean (100 mg, Pre-EtOH): 57.0 beats/min
Systolic Blood Pressure, Mean (100 mg, Pre-EtOH): 115.7 mmHg
creatine kinase value of one subject (100 mg, follow-up, abnormal, not clinically significant): 1350 U/L
severe TEAE (100 mg, one event): 0.6%
QTcF Interval, Aggregate, Mean (100 mg, prior to initiation of repeat EtOH administration session): 401.3 ms
creatine kinase value of one subject, repeat (100 mg, repeat 3 days later): 583 U/L
subjects reporting a TEAE (200 mg): 100%
Diastolic Blood Pressure, Mean [10]: 76.5 mmHg
Systolic Blood Pressure, Mean [10]: 121.7 mmHg
Diastolic Blood Pressure, Mean [11]: 72.5 mmHg
Heart Rate, Mean [11]: 84.5 beats/min
Systolic Blood Pressure, Mean [11]: 124.5 mmHg
QTcF Interval, Aggregate, Mean (200 mg, 1 hour after initiation of repeat EtOH administration session): 403.2 ms
Diastolic Blood Pressure, Mean [12]: 69.8 mmHg
Heart Rate, Mean [12]: 97.0 beats/min
Systolic Blood Pressure, Mean [12]: 125.7 mmHg
Diastolic Blood Pressure, Mean [13]: 68.0 mmHg
Heart Rate, Mean [13]: 101.3 beats/min
Systolic Blood Pressure, Mean [13]: 124.0 mmHg
